In patent US20170096636A1, “METHODS AND COMPOUNDS FOR PHOTOTHERAPY WITH CHALCOGENORHODAMINE PHOTOSENSITIZERS” (Wake Forest University Health Sciences, priority 2014, published 2017):
“And” between values parts separate entries of the source, which are not always exact repeats. Equal entries are not always repeated. Where two headings read alike, the source gives them in different places.

Assays:
HUT-78 cells = experiment: Cellular uptake and extrusion of photosensitizer (flow cytometry MFI); format: cell-based; conditions: ±SE; for Uptake MFI: 2.5 × 10^−7 M photosensitizer, 20 minutes exposure; for % Extrusion: percent change in MFI after 18 hour extrusion period, 2.5 × 10^−7 M
Method: Cellular Uptake and Extrusion of Chalcogenorhodamine Photosensitizers. […] Cellular uptake of the chalcogenorhodamine photosensitizers was measured after a 20 minute exposure to 2.5×10^−7 M photosensitizer in malignant T cells (HUT-78 cells, Table 2). Transmembrane movement of the photosensitizers in the secretory direction (basolateral to apical) was measured after an 18-h extrusion period. As described above, the Se-containing molecules fluoresced at a lower intensity relative to the S-containing molecules. […] Overall, the PF6^− salts were more slowly extruded from cells relative to the chloride salts of the amide, with a greater difference in the extrusion kinetics noted between the thiorhodamine PF6 salts compared to the selenorhodamine chloride salts.

[1] = Quantum yield for generation of singlet oxygen, time-resolved 1O2 phosphorescence; format: physicochemical; conditions: air-saturated MeOH, TMR-Se as reference
[2] = Fluorescence quantum yield in MeOH; format: physicochemical; conditions: for ΦF, MeOH: quantum yield for fluorescence in MeOH; for ΦF of sulfur analogue relative to selenium analogue: MeOH
P-gp = P-gp (Homo sapiens, UniProt P08183); conditions: cited from earlier work
Chain of P-gp (P08183 whole entry): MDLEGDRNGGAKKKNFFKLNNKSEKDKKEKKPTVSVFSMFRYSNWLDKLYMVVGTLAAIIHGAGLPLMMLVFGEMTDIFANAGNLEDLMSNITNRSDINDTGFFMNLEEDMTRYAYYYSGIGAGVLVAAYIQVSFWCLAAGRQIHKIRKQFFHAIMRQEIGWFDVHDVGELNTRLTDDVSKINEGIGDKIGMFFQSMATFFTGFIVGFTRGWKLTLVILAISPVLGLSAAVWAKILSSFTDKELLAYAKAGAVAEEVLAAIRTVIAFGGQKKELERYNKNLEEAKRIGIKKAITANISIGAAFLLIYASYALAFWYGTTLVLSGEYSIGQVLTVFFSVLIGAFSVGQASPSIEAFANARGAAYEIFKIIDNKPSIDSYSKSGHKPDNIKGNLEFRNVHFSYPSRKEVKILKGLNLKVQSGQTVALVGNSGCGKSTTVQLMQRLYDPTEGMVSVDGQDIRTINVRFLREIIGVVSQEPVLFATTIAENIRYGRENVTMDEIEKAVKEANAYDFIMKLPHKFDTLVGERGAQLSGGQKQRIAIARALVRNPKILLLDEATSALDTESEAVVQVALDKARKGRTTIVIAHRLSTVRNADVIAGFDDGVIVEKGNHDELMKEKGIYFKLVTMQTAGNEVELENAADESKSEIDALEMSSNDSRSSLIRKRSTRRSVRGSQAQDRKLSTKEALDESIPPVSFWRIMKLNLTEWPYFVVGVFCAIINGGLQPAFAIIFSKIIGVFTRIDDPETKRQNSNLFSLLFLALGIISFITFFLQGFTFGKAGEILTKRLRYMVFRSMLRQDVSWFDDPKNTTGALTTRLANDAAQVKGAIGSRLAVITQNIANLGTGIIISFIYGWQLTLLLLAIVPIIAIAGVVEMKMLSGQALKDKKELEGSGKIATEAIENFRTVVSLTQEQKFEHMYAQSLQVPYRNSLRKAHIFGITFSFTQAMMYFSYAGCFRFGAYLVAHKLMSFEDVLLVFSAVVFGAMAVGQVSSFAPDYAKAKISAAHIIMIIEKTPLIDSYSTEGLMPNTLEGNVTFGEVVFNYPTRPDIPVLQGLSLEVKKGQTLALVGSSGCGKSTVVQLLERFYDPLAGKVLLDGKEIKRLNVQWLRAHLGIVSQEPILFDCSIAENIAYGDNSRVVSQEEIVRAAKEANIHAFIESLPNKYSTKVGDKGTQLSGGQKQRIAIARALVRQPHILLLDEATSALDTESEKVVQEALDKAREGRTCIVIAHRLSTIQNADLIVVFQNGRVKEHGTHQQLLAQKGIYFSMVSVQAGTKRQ

[3] = tested on: immunomagnetically-selected CD3+ cells; experiment: Phototoxicity: cell survival by FACS (Annexin 5/7AAD) 18 hours after PD; format: cell-based; conditions: 5.0×10^−8 M, 5 J/cm^2 light, FACS 18 hours after PD
Description: (§1) Selective phototoxicity of Chalcogenorhodamine Photosensitizers. Based on the rapid extrusion kinetics and low potential for toxicity in resting cells, we selected four amide-containing half-julolidine analogues for further analysis (2-S—Cl, 2-Se—Cl, 4-S—Cl, and 4-Se—Cl). These photosensitizers are associated with high singlet oxygen quantum yields (Table I). As a result, very low concentrations of these agents are required for phototherapy. For all PD experiments, immunomagnetically-selected CD3^+ cells were suspended in a photosensitizer-rich media of 5.0×10^−8 M for 20 minutes followed by 30 minutes in a photosensitizer-free media. Cells were then exposed to 5 J/cm^2 of light followed by real-time measurement of OCR and ECAR. […] We next evaluated the effects of PD on cell survival. For these experiments, FACS analysis was performed 18 hours after PD. Cell survival was identified by failure to bind Annexin 5 and 7AAD, and percent survival was calculated as the difference in the absolute number of cells between PD and control (non-PD samples) samples.

[4] = tested on: immunomagnetically-selected CD3+ cells; experiment: Phototoxicity: photodepletion (PD) of CD3+ cells, real-time OCR; format: cell-based; conditions: 5.0×10^−8 M 20 minutes, 30 minutes photosensitizer-free, 5 J/cm^2 light
Description: as §1

resting T cells = experiment: Dark toxicity: bioenergetics (O2 consumption rate) of resting T cells; conditions: 5.0×10^−7 M
cytochrome c oxidase = conditions: whole cells, irradiation; cited from earlier work
[5] = n-octanol / PBS pH 7.4, shake flask

| Compound | Uptake MFI (HUT-78 cells) | % Extrusion (HUT-78 cells) | Φ(^1O2), MeOH [1] | log P [5] | ΦF, MeOH [2] | effect on ATPase activity in P-gp (P-gp) | cell death after PD [3] | log P (pH 7.4) | effect of PD on basal OCR [4] | dark toxicity (resting T cells) | ΦF of sulfur analogue relative to selenium analogue [2] | cytochrome c oxidase activity in irradiated treated cells (cytochrome c oxidase) |
| --- | --- | --- | --- | --- | --- | --- | --- | --- | --- | --- | --- | --- |
| CN1CCC(C)(C)c2cc3c(-c4ccc(C(=S)N5CCCCC5)s4)c4ccc(=[N+](C)C)cc-4[se]c3cc21.[Cl-] [1-Se—Cl, N-methyl-N-(1,4,4-trimethyl-6-(5-(piperidine-1-carbonothioyl)thiophen-2-yl)-3,4-dihydro-1H-selenochromeno[3,2-g]quinolin-9(2H)-ylidene)methanaminium Chloride] | 6162 (±633) | 90.06 (±1.95) % | 0.44 ± 0.03 | 1.61 ± 0.06 | 0.008 ± 0.001 | – | – | – | – | – | – | – |
| CN1CCC(C)(C)c2cc3c(-c4ccc(C(=S)N5CCCCC5)s4)c4ccc(=[N+](C)C)cc-4sc3cc21.[Cl-] [1-S—Cl] | 30070 (±2481) | 84.97 (±2.87) % | – | 1.92 ± 0.08 | 0.07 ± 0.01 | – | – | – | – | – | – | – |
| CN1CCC(C)(C)c2cc3c(-c4ccc(C(=S)N5CCCCC5)s4)c4ccc(=[N+](C)C)cc-4sc3cc21.F[P-](F)(F)(F)(F)F [1-S—PF6] | 30229 (±1124) | 84.16 (±3.00) % | – | 1.2 | 0.07 ± 0.01 | inhibit ATPase activity | – | – | – | – | – | – |
| CN1CCC(C)(C)c2cc3c(-c4ccc(C(=O)N5CCCCC5)s4)c4ccc(=[N+](C)C)cc-4sc3cc21.[Cl-] [2-S—Cl] | 50993 | 92.70 (±0.74) % | – | 2.26 ± 0.04 | 0.09 ± 0.01 | – | Significant cell death | – | – | – | – | – |
| CN1CCC(C)(C)c2cc3c(-c4ccc(C(=O)N5CCCCC5)s4)c4ccc(=[N+](C)C)cc-4sc3cc21.F[P-](F)(F)(F)(F)F [2-S—PF6] | 71978 | 91.79 (±1.16) % | – | 1.2 | 0.09 ± 0.01 | stimulate ATPase activity | – | – | – | – | – | – |
| CCN(CC)C(=S)c1ccc(-c2c3ccc(=[N+](C)C)cc-3[se]c3cc4c(cc23)C(C)(C)CCN4C)s1.[Cl-] [3-Se—Cl, N-(6-(5-(diethylcarbamothioyl)thiophen-2-yl)-1,4,4-trimethyl-3,4-dihydro-1H-seleno-chromeno[3,2-g]quinolin-9(2H)-ylidene)-N-methylmethanaminium Chloride] | 5480 (±666) | 88.65 (±1.21) % | 0.54±0.03 | – | 0.008 ± 0.002 | – | – | 2.41 ± 0.04 | – | – | – | – |
| CCN(CC)C(=S)c1ccc(-c2c3ccc(=[N+](C)C)cc-3sc3cc4c(cc23)C(C)(C)CCN4C)s1.[Cl-] [3-S—Cl] | 38237 (±2684) | 86.81 (±0.89) % | – | 1.98 ± 0.06 | 0.07 ± 0.01 | – | – | – | – | – | – | – |
| CCN(CC)C(=S)c1ccc(-c2c3ccc(=[N+](C)C)cc-3sc3cc4c(cc23)C(C)(C)CCN4C)s1.F[P-](F)(F)(F)(F)F [3-S—PF6] | 45685 (±2726) | 84.91 (±1.57) % | – | 1.7 | 0.07 ± 0.01 | inhibit ATPase activity | – | – | – | – | – | – |
| CCN(CC)C(=O)c1ccc(-c2c3ccc(=[N+](C)C)cc-3[se]c3cc4c(cc23)C(C)(C)CCN4C)s1.[Cl-] [4-Se—Cl, N-(6-(5-(diethylcarbamoyl)thiophen-2-yl)-1,4,4-trimethyl-3,4-dihydro-1H-selenochromeno-[3,2-g]quinolin-9(2H)-ylidene)-N-methylmethanaminium Chloride] | 5209 | 92.24 (±0.69) % | 0.50 ± 0.03 | 2.26 ± 0.04 | 0.009 ± 0.001 | – | minimal cell death | – | did not significantly impede the basal OCR | – | – | – |
| CCN(CC)C(=O)c1ccc(-c2c3ccc(=[N+](C)C)cc-3sc3cc4c(cc23)C(C)(C)CCN4C)s1.[Cl-] [4-S—Cl] | 64332 | 92.08 (±0.49) % | – | 2.16 ± 0.02 | 0.09 ± 0.01 | – | Significant cell death | – | – | not associated with any significant dark toxicity | – | – |
| CCN(CC)C(=O)c1ccc(-c2c3ccc(=[N+](C)C)cc-3sc3cc4c(cc23)C(C)(C)CCN4C)s1.F[P-](F)(F)(F)(F)F [4-S—PF6] | 66500 | 92.20 (±0.55) % | – | 1.5 | 0.09 ± 0.01 | stimulate ATPase activity | – | – | – | – | – | – |
| CN(C)c1ccc2c(-c3ccc(C(=S)N4CCCCC4)s3)c3cc4c5c(c3[se+]c2c1)CCCN5CCC4.[Cl-] [5-Se—Cl] | 12814 (±1256) | 85.03 (±2.90) % | 0.13±0.03 and 0.13 ± 0.02 | 3.00 ± 0.02 | 0.009 ± 0.002 | – | – | – | – | – | – | – |
| CN(C)c1ccc2c(-c3ccc(C(=S)N4CCCCC4)s3)c3cc4c5c(c3[s+]c2c1)CCCN5CCC4.[Cl-] [5-S—Cl] | 76661 (±5618) | 76.13 (±5.21) % | – | 2.97 ± 0.06 | 0.30 ± 0.01 | – | – | – | – | – | roughly 30 fold | – |
| CN(C)c1ccc2c(-c3ccc(C(=S)N4CCCCC4)s3)c3cc4c5c(c3[s+]c2c1)CCCN5CCC4.F[P-](F)(F)(F)(F)F [5-S—PF6] | 80192 (±4122) | 76.52 (±4.79) % | – | 1.7 | 0.28 ± 0.01 | inhibit ATPase activity | – | – | – | – | – | – |
| CN(C)c1ccc2c(-c3ccc(C(=O)N4CCCCC4)s3)c3cc4c5c(c3[se+]c2c1)CCCN5CCC4.[Cl-] [6-Se—Cl, 12-(Dimethylamino)-2,3,6,7-tetrahydro-9-(N-piperidyl-2-thienyl-5-carboxamido)-1H,5H-selenoxantheno[2,3,4-ij]quinolizin-14-ium hexafluorophosphate(V)] | 14910 | 88.39 (±1.13) % | 0.23 ± 0.03 | – | 0.011 ± 0.002 | – | – | 2.74 ± 0.02 | – | – | – | – |
| CN(C)c1ccc2c(-c3ccc(C(=O)N4CCCCC4)s3)c3cc4c5c(c3[s+]c2c1)CCCN5CCC4.[Cl-] [6-S—Cl] | 122500 | 82.10 (±1.17) % | – | 2.69 ± 0.02 | 0.36 ± 0.01 | – | – | – | – | – | roughly 30 fold | – |
| CN(C)c1ccc2c(-c3ccc(C(=O)N4CCCCC4)s3)c3cc4c5c(c3[s+]c2c1)CCCN5CCC4.F[P-](F)(F)(F)(F)F [6-S—PF6] | 114190 | 82.54 (±1.17) % | – | 1.9 | 0.36 ± 0.01 | stimulate ATPase activity | – | – | – | – | – | – |
| CCN(CC)C(=S)c1ccc(-c2c3ccc(N(C)C)cc3[se+]c3c4c5c(cc23)CCCN5CCC4)s1.[Cl-] [7-Se—Cl, 12-(Dimethylamino)-2,3,6,7-tetrahydro-9-(5-(diethylcarbamothioyl)-thiophen-2-yl)-1H,5H-selenoxantheno[2,3,4-ij]quinolizin-14-ium chloriode] | 14935 (±1810) | 81.23 (±2.56) % | – | – | – | – | – | 3.00 ± 0.02 | – | – | – | – |
| CCN(CC)C(=S)c1ccc(-c2c3ccc(N(C)C)cc3[s+]c3c4c5c(cc23)CCCN5CCC4)s1.[Cl-] [7-S—Cl] | 63950 (±5511) | 74.88 (±3.62) % | – | 2.55 ± 0.02 | – | – | – | – | – | – | – | – |
| CCN(CC)C(=S)c1ccc(-c2c3ccc(N(C)C)cc3[s+]c3c4c5c(cc23)CCCN5CCC4)s1.F[P-](F)(F)(F)(F)F [7-S—PF6] | 87456 (±10089) | 73.25 (±2.15) % | – | 2.7 | – | inhibit ATPase activity | – | – | – | – | – | – |
| CCN(CC)C(=O)c1ccc(-c2c3ccc(N(C)C)cc3[s+]c3c4c5c(cc23)CCCN5CCC4)s1.[Cl-] [8-S—Cl] | 114750 | 78.55 (±2.35) % | – | 2.65 ± 0.02 | – | – | – | – | – | not associated with any significant dark toxicity | – | – |
| CN(C)c1ccc2c(-c3ccccc3)c3ccc(=[N+](C)C)cc-3sc2c1.[Cl-] [TMR-S] | – | – | – | – | – | – | – | – | – | – | – | light fluence-dependent inhibition of cytochrome c oxidase activity |
